Like-named read-outs stand apart in the source and are kept apart here.
Tests used:
[1] = system: NCI-H358 cells; assay: NCI-H358 CTG proliferation assay (120 h) (NSCLC, G12C); assay type: cell-based, human; conditions: Homo sapiens
Protocol: NCI-H358 CTG Proliferation Assay (120 h) (NSCLC, G12C)
NCI-H358 cells (ATCC No. CRL-5807) are dispensed into white bottom opaque 96 well plates (Perkin Elmer cat no. 5680) at a density of 2000 cells per well in 100 μL RPMI-1640 ATCC-Formulation (Gibco #A10491)+10% FCS (fetal calf serum) (assay 1) or into black 384-well plates, flat and clear bottom (Greiner, PNr. 781091) at a density of 200 cells per well in 60 μl RPMI-1640 ATCC-Formulation (Gibco #A10491)+10% FCS (fetal calf serum) (assay 2). […] Compounds (10 mM stock in DMSO) are added at logarithmic dose series using the HP Digital Dispenser D300 (Tecan) (assay 1) or the ECHO acoustic liquid handler system (Beckman Coulter) (assay 2), normalizing for added DMSO and including DMSO controls. For the TO time point measurement, untreated cells are analyzed at the time of compound addition. Plates are incubated for 120 h, and cell viability is measured using CellTiter-Glo luminescent cell viability reagent (Promega product code G7570). Viability (stated as percent of control) is defined as relative luminescence units RLU of each well divided by the RLU of cells in DMSO controls. IC50 values are determined from viability measurements by non-linear regression using a four parameter model.

[2] = system: LOVO cells; assay: LOVO CTG proliferation assay (120 h) (CRC, G13D); assay type: cell-based; conditions: Homo sapiens, CTG 120 h
Protocol: LOVO CTG Proliferation Assay (120 h) (CRC, G13D)
LOVO cells (ATCC CCL-229) are dispensed into 384-well plates, flat and clear bottom (Greiner, PNr. 781091) at a density of 1000 cells per well in 60 μL DMEM (Sigma D6429)+10% Fetal Calf Serum (HyClone, PNr.: SH30084.03) and incubated at 37° C. in a CO2 incubator overnight. The next day, compounds (10 mM stock in DMSO) are added with the ECHO acoustic liquid handler system (Beckman Coulter), including DMSO controls. Plates are incubated for 120 h, and cell viability is measured using CellTiter-Glo luminescent cell viability reagent (Promega product code G7570). Viability (stated as percent of control) is defined as relative luminescence units RLU of each well divided by the RLU of cells in DMSO controls. IC50 values are determined from viability measurements by non-linear regression using a four-parameter model.

[3] = system: AsPC-1 cells; assay: AsPC-1 CTG proliferation assay (120 h) (pancreatic cancer, G12D); assay type: cell-based; conditions: Homo sapiens, ASPC1
Protocol: AsPC-1 CTG Proliferation Assay (120 h) (Pancreatic Cancer, G12D)
The CTG assay is designed to measure quantitatively the proliferation of AsPC-1 cells (ATCC […]), using the CellTiter Glow Assay Kit (Promega G7571). Cells are grown in RPMI medium (ATCC) supplemented with Fetal Calf Serum (Life Technologies, Gibco BRL, Cat. No. 10270-106). On “day 0” 2000 AsPC-1 cells are seeded in 60 μL RPMI ATCC+10% FCS+Penstrep in a 384-well plate, flat and clear bottom (Greiner, PNr. 781091). Cells are then incubated in the plates at 37° C. in a CO2 incubator overnight. On day 1, compounds (10 mM stock in DMSO) are added with the ECHO acoustic liquid handler system (Beckman Coulter), including DMSO controls. Plates are incubated for 120 h, and cell viability is measured using CellTiter-Glo luminescent cell viability reagent (Promega product code G7570). Viability (stated as percent of control) is defined as relative luminescence units RLU of each well divided by the RLU of cells in DMSO controls. IC50 values are determined from viability measurements by non-linear regression using a four-parameter model.

[4] = Caco-2 assay (permeability PappAB, PappBA, efflux ratio); assay type: in vitro ADME; conditions: human, Caco-2, 10 μM test compound, pH 7.4; for Papp A→B at 90 min, 10 μM: apical to basolateral; for efflux ratio at 90 min, 10 μM: efflux ratio PappBA/PappAB, read-out: Caco ER
From the text: The assay provides information on the potential of a compound to pass the cell membrane, on the extent of oral absorption as well as on whether the compound is actively transported by uptake and/or efflux transporters. Permeability measurements across polarized, confluent Caco-2 cell monolayers grown on permeable filter supports (Corning, catalog #3391) are used. […] The receiver and donor compartments contain 0.25% bovine serum albumine (BSA) in assay buffer. Passive diffusion and/or active transport of compounds across the monolayer is measured in both apical to basolateral (a-b) and basolateral to apical (b-a) direction. a-b permeability (PappAB) represents drug absorption from the intestine into the blood and b-a permeability (PappBA) drug secretion from the blood back into the intestine via both passive permeability as well as active transport mechanisms mediated by efflux and uptake transporters that are expressed on the Caco-2 cells. After a pre-incubation of 25-30 min at 37° C., at predefined time points (0, 30, 60 and 90 min), samples were taken from the receiver and donor compartment, respectively. Concentrations of test compounds in samples were measured by HPLC/MS/MS, samples from the donor compartment were diluted 1:50 (v:v) with assay buffer, samples from receiver compartment were measured without dilution.
Apparent permeabilities in a-b (PappAB) and b-a (PappBA) directions are calculated according to the formula:
[formula] • Vrec [mL]: buffer volume in receiver compartment • Cdon [μmol/mL]: concentration of test compound in donor compartment at t=0 • ΔCrec: difference between concentrations of test compound in receiver compartment at start and end of incubation time • Δt: Incubation time • Vrec·ΔCrec/Δt [μmol/min]: Amount of compound transferred to receiver compartment per time • A [cm^2]: filter surface
Caco-2 efflux ratios (ER) are calculated as the ratio of PappBA/PappAB.

[5] = assay 1, CTG, read-out: H358 (assay 1) IC50
[6] = assay 2, CTG, read-out: H358 (assay 2) IC50

Structure (SMILES)	IC50 [1, 5] [nM]	IC50 [1, 6] [nM]	IC50 [2] [nM]	IC50 [3] [nM]	Papp A→B at 90 min, 10 μM [4] [×10⁻⁶ cm/s]	efflux ratio at 90 min, 10 μM [4]
C[C@H](Oc1cc(N2CCNC3(CC3)C2)nc(-c2onc3c2CCC[C@@]32CCCc3sc(N)c(C#N)c32)n1)[C@@H]1CCCN1C [I-5]	813	852	1640	86	1.1	29
C[C@H](Oc1cc(N2C[C@H](C)N[C@@H](C)C2)nc(-c2onc3c2CCC[C@@]32CCCc3sc(N)c(C#N)c32)n1)[C@@H]1CCCN1C [I-6]	809		1220	1700	2.9	15
C[C@H](Oc1cc(N2CC[C@H](N(C)C)C2)nc(-c2onc3c2CCC[C@@]32CCCc3sc(N)c(C#N)c32)n1)[C@@H]1CCCN1C [I-11]		1980	1710	565	< 4.1	
C[C@H](Oc1cc(N2CC[C@H](N(C)C)C2)nc(-c2noc3c2CCC[C@@]32CCCc3sc(N)c(C#N)c32)n1)[C@@H]1CCCN1C [II-49]		1910	651	511	4.7	10.8
C[C@H](Oc1cc(N2CCNC[C@]23CCOC3)nc(-c2noc3c2CCC[C@@]32CCCc3sc(N)c(C#N)c32)n1)[C@@H]1CCCN1C [II-50]		2710	1630	142	0.3	111
C[C@H](Oc1cc(-n2cc3c(n2)CCNC3)nc(-c2noc3c2CCC[C@@]32CCCc3sc(N)c(C#N)c32)n1)[C@@H]1CCCN1C [II-53]		230	495	825	1.5	22
C[C@H](Oc1cc(N2CCNC3(CC3)C2)nc(-c2noc3c2CCC[C@@]32CCCc3sc(N)c(C#N)c32)n1)[C@@H]1CCCN1C [II-54]	298	908	531	67	< 1.1	
C[C@H](Oc1cc(N2CCN(C)CC2)nc(-c2noc3c2CCC[C@@]32CCCc3sc(N)c(C#N)c32)n1)[C@@H]1CCCN1C [II-55]		588	1090	748	3.5	5.4
C[C@H](Oc1cc(N2C[C@H](C)N[C@@H](C)C2)nc(-c2noc3c2CCC[C@@]32CCCc3sc(N)c(C#N)c32)n1)[C@@H]1CCCN1C [II-56]	587	173	661	378	7.5	2.3
C[C@H](Oc1cc(N2CCC[C@H](O)C2)nc(-c2noc3c2CCC[C@@]32CCCc3sc(N)c(C#N)c32)n1)[C@@H]1CCCN1C [II-57]		286	500	1840	0.7	43.3
CO[C@@H]1C[C@@H]([C@H](C)Oc2cc(-n3ccnc3)nc(-c3noc4c3CCC[C@@]43CCCc4sc(N)c(C#N)c43)n2)N(C)C1 [II-58]		562	113	6420	13	1.2
C[C@H](Oc1cc(N2CCC[C@@H](O)C2)nc(-c2noc3c2CCC[C@@]32CCCc3sc(N)c(C#N)c32)n1)[C@@H]1CCCN1C [II-59]		337	72	2240	0.9	37.2
C[C@H](Oc1cc(N2CC[C@@H](O)C2)nc(-c2noc3c2CCC[C@@]32CCCc3sc(N)c(C#N)c32)n1)[C@@H]1CCCN1C [II-66]		586	3680	3970	< 2.9	
Cc1cn(C)nc1-c1cc(O[C@@H](C)[C@@H]2CCCN2C)nc(-c2noc3c2CCC[C@@]32CCCc3sc(N)c(C#N)c32)n1 [II-68]		111	894	3240	5.8	1.2
C[C@H](Oc1cc(-n2ccnc2)nc(-c2noc3c2CCC[C@@]32CCCc3sc(N)c(C#N)c32)n1)[C@@H]1CCCN1C [II-69]		290	52	1730	4.1	5.4
C[C@H](Oc1cc(N2CCc3cccnc32)nc(-c2noc3c2CCC[C@@]32CCCc3sc(N)c(C#N)c32)n1)[C@@H]1CCCN1C [II-90]		3250	735	3810		
C[C@H](Oc1cc(-n2cccc3cnnc2-3)nc(-c2noc3c2CCC[C@@]32CCCc3sc(N)c(C#N)c32)n1)[C@@H]1CCCN1C [II-92]		3400	467	3920		
C[C@H](Oc1cc(-n2ccnc2Cl)nc(-c2noc3c2CCC[C@@]32CCCc3sc(N)c(C#N)c32)n1)[C@@H]1CCCN1C [II-93]		872	136	4640		
